# Data reported in ChEMBL document CHEMBL2311372, “Design and synthesis of novel benzoheterocyclic derivatives as human acrosin inhibitors by scaffold hopping” (Eur J Med Chem, 2013).
# pIC50: −log10 of the molar value.
# Molecular target: Acrosin (Homo sapiens, UniProt P10323)
# Experiment: Inhibition of human acrosin using N-alpha-benzoyl-DL-arginine para-nitroanilide-HCl as substrate after 3 hrs by spectrophotometry
# Sequence of Acrosin (P10323 20-42 limits assumed): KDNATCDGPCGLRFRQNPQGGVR
# Sequence of Acrosin (P10323 43-343 limits assumed): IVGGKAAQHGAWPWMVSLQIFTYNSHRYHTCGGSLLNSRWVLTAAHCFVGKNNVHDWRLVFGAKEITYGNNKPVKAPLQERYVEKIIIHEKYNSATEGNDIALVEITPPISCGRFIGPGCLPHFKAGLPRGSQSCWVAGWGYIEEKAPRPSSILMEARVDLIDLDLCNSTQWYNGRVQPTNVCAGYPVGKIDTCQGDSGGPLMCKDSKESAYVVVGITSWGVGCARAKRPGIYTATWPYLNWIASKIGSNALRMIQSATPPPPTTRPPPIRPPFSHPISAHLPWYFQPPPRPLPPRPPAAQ
row,SMILES,pIC50
1,COc1ccc(-c2cc(C(=O)N(CCO)CCO)n[nH]2)cc1,2.24
2,O=C(NCCO)Nc1nc2ccc(S(=O)(=O)NCc3cc(Cl)cc(Cl)c3)cc2[nH]1,2.61
3,CCOC(=O)c1nn(C(=O)c2ccc(Cl)cc2Cl)c2ccccc12,2.49
4,COc1ccc(-c2cc(C(=O)NCC(C)O)n[nH]2)cc1 (stereo unspecified),2.05
5,Cc1ccc(S(=O)(=O)NC(CCCCN)C(=O)CCl)cc1 (stereo unspecified),0.85
6,Cc1cccc(CNS(=O)(=O)c2ccc3nc(NC(=O)NCCO)[nH]c3c2)c1,2.26
7,CCCCN(CCCC)CC(=O)Nc1nc2ccc(Br)cc2s1,2.56
8,COc1ccccc1CNS(=O)(=O)c1ccc2nc(NC(=O)NCCO)[nH]c2c1,2.22
9,CCCCCCNS(=O)(=O)c1ccc2nc(NC(=O)NCCO)[nH]c2c1,2.79
10,O=Cc1cc(-c2ccc(Cl)cc2Cl)on1,1.41
11,CCCCCN1CCN(CC(=O)Nc2nc3ccc(Br)cc3s2)CC1,2.29
12,COc1cccc(CNS(=O)(=O)c2ccc3nc(NC(=O)NCCO)[nH]c3c2)c1,2.14
13,CNC(=O)c1nn(C(=O)c2ccc(Cl)cc2Cl)c2ccccc12,2.42
14,COc1ccc(-c2cc(C(=O)N(C)CCO)n[nH]2)cc1,2.17

# Now those with a higher pIC50, led by results:
row,pIC50,SMILES
1,2.84,COc1ccc(-c2cc(C(=O)NCCCO)[nH]n2)cc1
2,2.96,CC(C)CCN(CCC(C)C)CC(=O)Nc1nc2ccc(Br)cc2s1
3,2.97,O=C(NCCO)Nc1nc2ccc(S(=O)(=O)NCc3ccccc3Cl)cc2[nH]1
4,3.27,CCCCCN(CCCCC)CC(=O)Nc1nc2ccc(Br)cc2s1
5,3.47,O=C(NCCO)Nc1nc2ccc(S(=O)(=O)NCc3cc(F)cc(F)c3)cc2[nH]1
6,3.55,O=C(NCCO)Nc1nc2ccc(S(=O)(=O)NCc3ccccc3)cc2[nH]1
7,4.10,O=C(NCCO)Nc1nc2ccc(S(=O)(=O)NCc3ccccc3F)cc2[nH]1
